Measured values taken from ChEMBL document CHEMBL6182852, “Discovery of ATP competitive PDHK1/2 dual inhibitors” (Bioorg Med Chem Lett, 2025).
pIC50: −log10 of the molar value.

How the values were obtained:
[1] = Inhibition of E1 PDHK (unknown origin) phosphorylation at S232 residues; design: species or system Homo sapiens
[2] = Inhibition of LPS-induced TNF release in human PBMC cells; type: functional, cell-based
[3] = Cytotoxicity against human PBMC cells
[4] = biological target: [Pyruvate dehydrogenase (acetyl-transferring)] kinase isozyme 2, mitochondrial (Homo sapiens, UniProt Q15119); test: Inhibition of PDHK2 (unknown origin)
[5] = biological target: [Pyruvate dehydrogenase (acetyl-transferring)] kinase isozyme 1, mitochondrial (Homo sapiens, UniProt Q15118); test: Inhibition of PDHK1 (unknown origin) in presence of 0.5 uM ATP
Chain of [Pyruvate dehydrogenase (acetyl-transferring)] kinase isozyme 1, mitochondrial (Q15118 whole entry): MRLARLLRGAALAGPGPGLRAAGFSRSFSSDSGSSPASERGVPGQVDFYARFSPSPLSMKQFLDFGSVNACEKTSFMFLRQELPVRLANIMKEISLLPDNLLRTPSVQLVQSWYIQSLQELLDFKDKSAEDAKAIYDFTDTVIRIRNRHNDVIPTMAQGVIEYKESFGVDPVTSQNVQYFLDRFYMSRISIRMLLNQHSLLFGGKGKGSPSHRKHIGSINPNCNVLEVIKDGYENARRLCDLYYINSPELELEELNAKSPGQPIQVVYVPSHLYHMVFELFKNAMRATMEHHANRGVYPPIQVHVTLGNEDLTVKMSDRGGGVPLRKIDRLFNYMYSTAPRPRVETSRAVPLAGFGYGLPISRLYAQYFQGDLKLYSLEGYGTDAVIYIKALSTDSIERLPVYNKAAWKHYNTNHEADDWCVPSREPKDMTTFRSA

pIC50 [2] | pIC50 [4] | pIC50 [5] | Structure (SMILES) | pIC50 [1] | CC50 [3]
4.15 | 7.47 | – | CCNc1cc(F)cc2c1[nH]c(=O)n2-c1c(C)cc(Oc2cccc(C(=O)O)c2)cc1Cl | < 4.00 | > 100 µM
– | – | < 4.00 | CSc1cc(-c2nccs2)n[nH]1 | – | –
< 4.00 | – | – | CCNc1cc(F)cc2c1NC(=O)C2(C)N1CCC[C@@H](Nc2ccc(C(=O)O)c(Cl)c2)C1 (stereo partly drawn) | – | > 100 µM
6.05 | 7.82 | – | CCNc1cc(F)cc2c1NC(=O)C2(CC)N1CCC[C@@H](NC(=O)C2CC3(C2)CN(C#N)C3)C1 (mixture of isomers) | – | > 100 µM
5.35 | – | – | CCNc1cc(F)cc2c1NC(=O)C2(C)N1CCC[C@@H](Nc2ccc(C#N)nc2)C1 (mixture of isomers) | – | 56.9 µM
4.31 | – | – | CCNc1cc(F)cc2c1NC(=O)C2(C)N1CCCCC1 (racemic) | – | > 100 µM

Structure (SMILES) | pIC50 [2] | pIC50 [4] | pIC50 [5] | pIC50 [1] | CC50 [3]
CCNc1cc(F)cc2c1[nH]c(=O)n2-c1ccc(Oc2cccc(S(=O)(=O)F)c2)cc1 | 4.61 | 6.92 | – | 5.28 | > 100 µM
